Values joined by “and” are separate entries in the source; they are usually repeats but may differ in a detail not shown here. Identical values can stand only once.
Columns and labels:
[1] = target: rASBT (Rattus norvegicus, UniProt Q62633); assay: Vincristine uptake screen, HeLa cells overexpressing rASBT; assay type: in vitro ADME
Method: Relative uptake is expressed as percentage change compared with empty vector controls (n = 4–14 per group). […] Human OATP1B1 and OATP1B3 transporter–overexpressed cells were used as positive controls; empty vector controls were used as the negative control. […] Mechanical allodynia (C), thermal hyperalgesia (D), and sciatic nerve maximal action potential amplitudes (E) are expressed as percentage change relative to baseline values (n = 6–8 per group). Statistical analysis was performed using a 2-way ANOVA with Bonferroni’s post hoc test. **P < 0.01, ***P < 0.001, ****P < 0.0001, compared with baseline values. […] Data are shown as mean ± SEM. […]
transfected with transporters of interest, including hOAT1, hOAT3, hOAT4, hOATP1A2, hOATP3A1, hOATP4A1, hOATP5A1, hOATP1C1, hOATP1B1, hOATP1B3, hOATP2B1, hOCT1, hOCT2, hOCTN1, hOCTN2, hASBT, hNTCP, hNPT1, hMATE1, hOSTα/β, hPEPT1, hPEPT2, rOatp1a1, rOatp1a4, rOatp1a5, rOatp1b2, rNtcp, rAsbt, rOat1, and rOct1. Cells were transfected with expression plasmid or vector control lacking any insert using Lipofectin reagent (Invitrogen). Sixteen hours thereafter, cells were washed with transport media (OPTIMEM, Invitrogen) and treated with radiolabeled drug. […] The cellular radioactivity was quantified by liquid scintillation counting as described above. […]

[2] = test system: mice; assay: Open field locomotion, Basso Mouse Scale (BMS); assay type: in vivo; design: key: BMS score: higher = better hindlimb locomotion; normal = 9
Method: where the distance between two adjacent rungs is changeable (1-5 cm). The elevated ladder tests were initiated after mice had been acclimated to their surrounding for at least 4 h. The mice were placed at one end of the ladder and encouraged to move forward by a food reward at the other end of the ladder. If a […]
counted by an electrical counter. Experiments were repeated 3 times for each mouse, and an average of the three trials was used for analysis. Open-field locomotion was assessed with the Basso Mouse Scale (BMS) rating system (7). The open field was a round table that was 20.32 cm high and 1.524 m in diameter situated in a quiet testing room with normal lighting. The mice were acclimated to the testing table for 20 min daily for a week before drug administration. Two analysts blinded to the composition of the treatment groups simultaneously scored hindlimb locomotion for 4 min per mouse using a score sheet described previously (7). Parameters of interest included paw position (rotated in, rotated out, parallel placement), trunk stability, tail position, coordination, and plantar and dorsal support. Quantification was based on a scoring system where conditional variables are given a numerical representation in each category. A higher number correlates to better hindlimb locomotor function and ‘normal’ behavior scores a 9; conversely, a lower number represents abnormal locomotion. […]
by an automated ladder test. […]
using the mean Basso Mouse Scale for Locomotion (BMS) score. There were no pronounced differences […]
statistically significant.
(also on this page, place not known: Baseline Day 1 Day 2 Day 3 0 5 10 15 20 25 Number missed steps Wild-type Baseline Day 1 Day 2 Day 3 0 5 10 BMS Wild-type ns A B OATP1B2(-/-) OATP1B2(-/-) score of behavior. ns)

[3] = target: T1, mOATP1B2 (Mus musculus, UniProt Q9JJL3); assay: Nilotinib uptake in HEK293 cells overexpressing mOATP1B2; assay type: in vitro ADME; conditions: HEK293 cells overexpressing mOATP1B2 vs vector control
T1 sequence (Q9JJL3 1-689): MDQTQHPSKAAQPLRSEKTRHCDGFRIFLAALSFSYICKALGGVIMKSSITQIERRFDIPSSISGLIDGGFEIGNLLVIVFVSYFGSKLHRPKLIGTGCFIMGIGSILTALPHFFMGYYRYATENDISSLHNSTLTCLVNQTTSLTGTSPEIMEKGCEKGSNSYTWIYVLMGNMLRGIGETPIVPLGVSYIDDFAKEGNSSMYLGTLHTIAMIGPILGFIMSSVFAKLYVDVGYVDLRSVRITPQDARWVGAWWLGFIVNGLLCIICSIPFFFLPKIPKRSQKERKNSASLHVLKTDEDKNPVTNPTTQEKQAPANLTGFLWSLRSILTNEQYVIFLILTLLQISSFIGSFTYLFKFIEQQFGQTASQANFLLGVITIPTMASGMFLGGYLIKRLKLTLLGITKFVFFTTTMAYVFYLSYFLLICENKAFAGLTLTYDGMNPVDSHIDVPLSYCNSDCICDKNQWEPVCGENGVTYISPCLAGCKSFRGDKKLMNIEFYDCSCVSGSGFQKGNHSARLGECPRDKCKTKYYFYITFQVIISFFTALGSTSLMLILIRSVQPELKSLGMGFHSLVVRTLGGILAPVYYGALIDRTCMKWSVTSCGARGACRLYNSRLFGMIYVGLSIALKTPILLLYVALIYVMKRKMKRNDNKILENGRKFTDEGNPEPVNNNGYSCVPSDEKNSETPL

Chain of rASBT (Q62633 whole entry): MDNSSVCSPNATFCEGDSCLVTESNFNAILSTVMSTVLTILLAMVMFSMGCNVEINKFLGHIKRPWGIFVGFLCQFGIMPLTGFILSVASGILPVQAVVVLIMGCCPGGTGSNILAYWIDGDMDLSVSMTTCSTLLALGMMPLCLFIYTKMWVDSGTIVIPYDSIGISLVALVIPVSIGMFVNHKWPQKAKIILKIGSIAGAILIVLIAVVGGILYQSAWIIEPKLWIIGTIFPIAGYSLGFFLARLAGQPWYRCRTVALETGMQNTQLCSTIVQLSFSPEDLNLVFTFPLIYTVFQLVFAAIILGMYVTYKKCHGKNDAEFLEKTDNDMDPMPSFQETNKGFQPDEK

Row | SMILES | Vincristine uptake (% of vector control) [1] | BMS score ([2]; OATP1B2(-/-) mice, Day 1) | BMS score ([2]; OATP1B2(-/-) mice, Day 2) | BMS score ([2]; OATP1B2(-/-) mice, Day 3) | BMS score ([2]; Wild-type mice, Day 1) | BMS score ([2]; Wild-type mice, Day 2) | BMS score ([2]; Wild-type mice, Day 3) | Basso Mouse Scale for Locomotion (BMS) score, average ([2]; wild-type and OATP1B2(-/-) mice, single i.p. dose 1 mg/kg, up to 3 days) | Nilotinib uptake (% of control) [3]
1 | CC[C@]1(O)C[C@H]2CN(CCc3c([nH]c4ccccc34)[C@@](C(=O)OC)(c3cc4c(cc3OC)N(C=O)[C@H]3[C@@](O)(C(=O)OC)[C@H](OC(C)=O)[C@]5(CC)C=CCN6CC[C@]43[C@@H]65)C2)C1 [Vincristine, vincristine] | 95.00 % of vector control and 78.00 % of vector control and 81.00 % of vector control and 90.00 % of vector control and 114.00 % of vector control and 85.00 % of vector control and 118.00 % of vector control | 9 | 9 | 9 | 9 and 8 | 9 and 8 | 9 | 9 | –
2 | Cc1cn(-c2cc(NC(=O)c3ccc(C)c(Nc4nccc(-c5cccnc5)n4)c3)cc(C(F)(F)F)c2)cn1 [Nilotinib, nilotinib] | – | – | – | – | – | – | – | – | 68.9093 % of control and 50.5858 % of control and 83.427 % of control

— paper PMC10443802, “Targeting a xenobiotic transporter to ameliorate vincristine-induced sensory neuropathy” (JCI Insight, 2023)
